# Columns and labels:
# [1] = Copper titration with Murexide indicator; type: physicochemical; settings: 2 g (0.009 mmol) in 100 mL water, 0.01 molar copper chloride, approximately pH 8, sodium acetate buffer
# Protocol: Copper titration value is used to measure the extent of biodegradation of the chelating agents during the procedure. Titration is performed using ammonium purpurate (indicator for complexometric titration, commercially available from Aldrich Chemical Co., Inc. under the trade designation Murexide) at approximately pH 8, and using sodium acetate as buffer. Titration of […] N-[2-(carboxymethoxy)ethyl]-N-(carboxymethyl)glycine (0.009 mmol) in 100 mL water with 0.01 molar copper chloride gives an endpoint of 0.99 mL, representing a 1:1 chelation of copper. Analysis is performed daily for a period of 28 days.
# [2] = Calcium oxalate titration (calcium chelation capacity); type: physicochemical
# Protocol: The applicability of N-[2-(carboxymethoxy)ethyl]-N-(carboxymethyl)glycine for use in hard surface cleaners, is measured by the calcium oxalate titration.
# For titration with calcium oxalate, N-[2-(carboxymethoxy)ethyl]-N-(carboxymethyl)glycine (between 1 to 2 millimoles) is placed in a 60 mL beaker. After the addition of 30 mL deionized water and 5 mL of a 3% ammonium oxalate solution, the pH is slowly brought to about 10 by the addition of 20% sodium hydroxide while stirring. The pH is then adjusted to about 11.6 with sodium hydroxide and the solution is titrated with 0.1 M CaCl2 to the first permanent turbidity. The chelation valve is then determined from the mL of titrant used based on the following calculation.
# Chelation Value=(mL titrant used×molarity titrant)×100 mg CaCO3 per mmole÷sample wt. in grams×activity of sample (as acid form)
# The chelation value is the mg of CaCO3 that can be chelated by one active gram of a chelant, such as N-[2-(carboxymethoxy)ethyl]-N-(carboxymethyl)glycine (IX).
# The turbidity produced in the oxalate titration is due to the formation of calcium oxalate. The results for the titration of N-[2-(carboxymethoxy)ethyl]-N-(carboxymethyl)glycine in the presence of oxalate is compared with iminodiacetic acid (IDA) and given in Table II below.
smiles,measurement,setting,value
"O=C(O)COCCN(CC(=O)O)CC(=O)O [(IX), N-[2-(carboxymethoxy)ethyl]-N-(carboxymethyl)glycine]",Copper titration endpoint,[1],0.99 mL
same,Chelation value compared with IDA (in words),[2],far superior to IDA
same,Chelation Value,"[2]; pH about 11.6, 0.1 M CaCl2 to first permanent turbidity",423 mg of CaCO3 per active gram of

# Source: US6627772B2, “Preparation of N-[2-(carboxymethoxy) ethyl]-N-(carboxymethyl) glycine” (The Dow Chemical Company, priority 1999, dated 2003)
